Data from patent US20220111122A1, “COMPOSITION FOR IMPROVED BONE FRACTURE HEALING” (CORTHOTEC LTD, priority 2019, published 2022).

Columns and labels:
[1] = system: osteoclast activity (as measured by bone resorption); test: zoledronate concentration versus bone resorption (FIG. 3); type: cell-based; details: osteoclast activity decreases significantly compared to lower concentrations
Excerpt: (§1) The graphs in FIGS. 3 and 4 depict the optimal concentrations of zoledronate (derived from zoledronic acid as the bisphosphonate) required to suppress bone resorption by means of a proportionate decrease in osteoclast number.

[2] = system: osteoclast number; test: zoledronate concentration versus osteoclast number (FIG. 4); type: cell-based; details: compared to lower concentrations
Excerpt: as §1

O=P(O)(O)C(O)(Cn1ccnc1)P(=O)(O)O [zoledronic acid]
concentration of optimal efficacy to suppress bone resorption [1]: approximately 10^−6 M
concentration of optimal efficacy to decrease osteoclast number [2]: approximately 10^−6 M
